For data set [1], the system named is C. albicans clinical isolates. In kind it is cell-based, Candida albicans. The conditions noted are these: 16 h. On the procedure: (§1) The antifungal activity of AMPs was determined against 50 clinical isolates, 10 for each of the following Candida species: C. albicans, C. tropicalis, C. glabrata, C. parapsilosis, and C. auris. The latter were derived from patients with positive blood cultures in four hospitals in India, with known resistance profiles to fluconazole, voriconazole, and echinocandins. Yeast cells were grown in Brain Heart Infusion (BHI) medium (Sigma-Aldrich, Gillingham, UK) for 16 h at 37 °C in a 150-rpm orbital shaker. Cells were then sub-inoculated in a fresh BHI medium and grown to an optical density (OD) of 0.3. The turbidity of the inoculum was adjusted to 0.5 McFarland and diluted 1:500 in RPMI 1640 broth, corresponding to around […].
(§2) Minimal inhibitory concentrations (MICs) were determined by Broth microdilution susceptibility tests, according to The Clinical and Laboratory Standards Institute (CLSI) international guidelines. A fungal suspension of 0.5 MacFarland was diluted 1:500 in RPMI 1640 broth and incubated in 96 multi-well plates containing AMPs at different concentrations ranging from 0.125 to 256 μg/mL. In this range of concentration, lipopeptides were completely soluble. […] The MIC90 represents the value at which ≥90% of the strains within a test population were inhibited.

The test system of data set [2] is C. tropicalis clinical isolates. In kind it is cell-based, Candida tropicalis. The conditions noted are these: clinical isolates, 16 h. Here is the method:
as §1, §2

The subject of data set [3] is C. auris clinical isolates. In kind it is cell-based, Candida auris. As to conditions: clinical isolates, 16 h. Here is the method:
as §1, §2

For data set [4], the system named is C. glabrata clinical isolates. In kind it is cell-based, Candida glabrata. The conditions noted are these: 16 h. On the procedure: as §1, §2
Data set [5] deals with C. parapsilosis clinical isolates. In kind it is cell-based, Candida parapsilosis. The conditions noted are these: clinical isolates, 16 h. Here is the method:
as §1, §2

Data set [6] has as its system Galleria mellonella larvae. As to the kind of experiment: In vivo peptide toxicity in Galleria mellonella model. The conditions noted are these: uninfected larvae, groups of ten, peptide 640 µg/mL, single injection, 30 °C. On the procedure: Multidrug-resistant C. auris was chosen as a representative species for in vivo studies. […] Groups of ten G. mellonella larvae were infected with C. auris and treated with the Pep-B and Myr-B peptides at a concentration of 640 µg/mL (about 400 µM).
Ten larvae (250–320 mg each) were selected at random for each step in the procedure. Any larvae with darkening of the cuticle were discarded. The test compounds and yeast were injected into the hemocoel in water buffer through the last left proleg (Insumed 30G Pic, Italy, syringe volume 0.5 mL, needle size 30G). The larvae were incubated in the dark for 3 days, and mortality was recorded daily.
For the peptide efficacy experiment, ten larvae were injected into the last left proleg with a pre-determined infective dose of yeast and the dose of peptides at the same time in a final volume of 10 μL and incubated at 30 °C. Each step in the procedure included six groups of 10 larvae: C. auris-infected larvae (10^7 CFU), infected and treated larvae with peptide B (640 μg/mL), infected and treated larvae with peptide Myr-B (640 μg/mL), treated larvae with peptide B (640 μg/mL), treated larvae with peptide Myr-B (640 μg/mL), and vehicle-injected control (water). The mortality was recorded daily for 3 days.

The subject of a further data set is rabbit erythrocytes. As to conditions: 5 µM.

Where no end group is shown, it is not given here.

Description for rabbit erythrocytes: The hemolytic assay was performed on rabbit erythrocytes (Rockland) maintained in Alsever’s solution (Innovative Research). Briefly, after the removal of Alsever’s solution, the erythrocytes were resuspended in PBS and counted in a hemocytometer. A suspension of 5,000,000 red blood cells was incubated with four dilutions (from 5 µm to 50 µm) of the six peptides in a 96-well microplate. As a negative control, erythrocytes were incubated without the peptides, while as a positive control, erythrocyte was added with triton 10% v/v. The plate was incubated at 37 °C for 2 h and subsequently centrifuged at 1200 rpm × 3 min to separate the pellet from the supernatant. The absorbance of the supernatant was measured at 492 nm. Each point was made in triplicate. The relative OD compared to the positive control defined the percentage of hemolysis [71]. Statistical analysis was performed using two-way ANOVA analysis followed by Bonferroni’s post-test.

For WVVKKVKGLLK [Pep-C], the MIC in data set [1], in data set [4] and in data set [5] was over 256 µg/mL throughout. Besides, the MIC90 in data set [1], in data set [2], in data set [3], in data set [4] and in data set [5] was over 256 µg/mL each time.
As for WRGITKVVKKV [Pep-B], the MIC in data set [1], in data set [4] and in data set [5] was over 256 µg/mL throughout. Moreover, the MIC90 in data set [1], in data set [2], in data set [3], in data set [4] and in data set [5] was over 256 µg/mL throughout. Moreover, the “Peptide toxicity, DAY 1 Dead” value in data set [6] is listed as 3. Moreover, the “Peptide toxicity, DAY 2 Dead” value in data set [6] came to 5. In addition, the “Peptide toxicity, DAY 3 Dead” value in data set [6] worked out at 9.
On to WFGKLYRGITK [Pep-A], for which the minimum inhibitory concentration (MIC) in data set [1], in data set [4] and in data set [5] was over 256 µg/mL each time. Besides, the MIC90 in data set [1], in data set [2], in data set [3], in data set [4] and in data set [5] was over 256 µg/mL in each case. In addition, the hemolysis in the data set with rabbit erythrocytes is recorded as 0.1%.
